Measured values taken from patent US20140187618A1, “COMPOSITIONS, METHODS AND KITS USING FOR INDUCING OR ENHANCING NEUROGENESIS IN CELLS AND TISSUE” (Biocrescentia, LLC, priority 2012, published 2014).

Columns and labels:
[1] = tested on: neural stem cells in the dentate gyrus of the hippocampus; assay: BrdU quantification of hippocampal stem cell proliferation in adult mice; set-up: species or system BalbC mice; conditions: in vivo and in vitro; summary statement
Description: (§1) Adult six to eight week old male BalbC mice were obtained and kept in cages at room temperature, allowed access to food and water ad libidum, and subjected to 12-hour light/darkness cycles. All procedures were conducted in accordance with the guide for laboratory animal care of the Institute of Biological Sciences/Federal University of Pará (ICB/UFPA) Ethics Committee.
(§2) For BrdU analysis, animal subjects were administered BrdU (50 mg/kg) and were euthanized, and then were perfused with saline and 4% paraformaldehyde (PFA). The brain tissues were dissected and fixed at 4° C. in 4% PFA for 12 hours, then cryoprotected in 20% sucrose. The brain tissues were sliced at 40 micrometers (microns, μm) in a cryostat. […]
To analyze hippocampal stem cell proliferation and effect of physalins on this proliferation, groups of subjects were administered a dose of 50 mg/kg BrdU intraperitoneally and different doses of PD. […] The total number of BrdU-positive cells in the subgranule layer of the hippocampus was quantified. The number of BrdU-positive cells was calculated by measuring the area (ten micrometers corresponds to two cell bodies) between the hilus and the hippocampal granule layer in each cut (Bastos et al. 2008 J. Ethnopharmacol. 118(2): pages 246-251). […]
A qualitative analysis of BrdU-labeled cells in the dentate gyrus of adult mice was also performed using fluorescence microscopy. […]

[2] = tested on: BrdU-positive cells in the subgranule layer of the hippocampus; assay: BrdU quantification of hippocampal stem cell proliferation, dosing every 7 days for 90 days; type: in vivo, BalbC mice; conditions: 5 mg/kg every 7 days for 90 days
Description: as §1, §2
To further analyze and quantitate hippocampal stem cell proliferation, effect of physalins on this proliferation, and survival of subjects, groups of subjects were administered a dose of 50 mg/kg BrdU intraperitoneally and 5 mg/kg of PD or AE every 7 days for 90 days. […] The total number of BrdU-positive cells in the subgranule layer of the hippocampus was quantified. The number of BrdU-positive cells was calculated by measuring the area (ten micrometers corresponds to two cell bodies) between the hilus and the hippocampal granule layer in each cut by the method of Bastos et al. 2008 J. Ethnopharmacol. […]

[3] = tested on: hippocampus cells (nestin-positive cells); assay: Nestin immunostaining of hippocampus cell culture; type: cell-based, Wistar rats; conditions: 10 μM of PD for 24 hours; control EGF and FGF-2 10 ng/ml
Description: The hippocampi of Wistar rats (post natal days one to five) were dissected and mechanically dissociated. Viable cells were plated in four wells of a multi-well culture dish (NUNC Inc.) at a density of 10^6 cells/well containing neurobasal medium without serum or growth factor. After 24 hours, the cells were washed and PD was added to the cells (treated group). Control cells (absent PD) were treated with 10 nanograms per milliliter (ng/ml) of each of EGF and FGF-2 only. Cultures were incubated at 37° C. with 5% CO2 and 95% atmospheric air.
Hippocampus cells were cultured with 10 μM of PD for 24 hours, and the cells were then immunostained for using an anti-nestin antibody. Nestin is an intermediate filament protein expressed in dividing cells during the early stages of development in the central nervous system (CNS), peripheral nervous system (PNS) and in myogenic and other tissues. Without being limited by any particular theory or mechanism of action, it is here envisioned that presence of nestin in hippocampus cells indicates the presence of progenitor stem cells.

Leishmania amazonensis = conditions: cited from earlier work
macrophages = conditions: cultured in vitro model; cited from earlier work
[4] = tested on: TNF-α, interleukin-6 and interleukin-12; conditions: mice treated with lipopolysaccharide; cited from earlier work
[5] = in vivo; cited from earlier work

Row | Compound | growth of Leishmania amazonensis in macrophages infected with the parasite (Leishmania amazonensis) | macrophages activation by lipopolysaccharide and interferon-γ (macrophages) | nitric oxide production (macrophages) | further results
1 | C[C@@]12C[C@H]3OC(=O)[C@@H]1CO[C@]14O[C@]5([C@H]2C1=O)[C@@](O)(CC[C@H]1[C@H]4C[C@@H](O)[C@@]2(O)CC=CC(=O)[C@]12C)C(=O)O[C@@]35C [Physalin D] | – | – | – | neurogenic activity [1]: neurogenic activity in vivo and in vitro; actively dividing cells in adult hippocampus tissues [2]: promotes the increase of actively dividing cells; cell survival [2]: improves cell survival for at least three months; number of nestin-positive cells in the hippocampus cell culture [3]: increased the number of nestin-positive cells
2 | C[C@]12C(=O)C=CCC1=CC[C@@H]1[C@@H]2CC[C@@]2(O)C(=O)O[C@@]3(C)[C@H]4C[C@@]5(C)[C@@H](CO[C@@]16O[C@]23[C@H]5C6=O)C(=O)O4 [Physalin B] | inhibit the growth | inhibit macrophages activation | substantial reduction in nitric oxide production | levels of TNF-α in serum [4]: significantly reduce levels; levels of interleukin-6 in serum [4]: significantly reduce levels; levels of interleukin-12 in serum [4]: significantly reduce levels
3 | CNCCC(Oc1ccc(C(F)(F)F)cc1)c1ccccc1 (stereo not shown) [fluoxetine] | – | – | – | reduction of stress-induced neurogenesis [5]: reverses or prevents the reduction of stress-induced neurogenesis
4 | C[C@@]12C[C@H]3OC(=O)[C@@H]1CO[C@]14O[C@]5([C@H]2C1=O)[C@@](O)(CC[C@H]1[C@H]4C[C@H]2O[C@]24CC=CC(=O)[C@]14C)C(=O)O[C@@]35C [Physalin F] | inhibit the growth | inhibit macrophages activation | substantial reduction in nitric oxide production | –
5 | C[C@]12C(=O)C=CCC1C(O)CC1C2CC[C@]2(O)C(=O)O[C@@]3(C)[C@H]4C[C@@]5(C)C6C(=O)[C@]1(OC[C@H]5C(=O)O4)O[C@@]632 (stereo partly shown) [Physalin G] | – | inhibit macrophages activation | substantial reduction in nitric oxide production | –
